Where no end group is shown, it is not given here.
What was measured:
Assay type in all cases: binding, human
melanoma sera pool [1] = assay: Epitope screening ELISA of biotinylated peptides with melanoma sera pool; details: FIG. 2
Protocol: FIG. 2: Selected candidate peptides by Epitope prediction were tested with a melanoma sera pool and a reference sera pool respectively. The mouse derived control peptides K1 (Biotin-SGSG-KPLAQ-NH2) and K2 (Biotin-SGSG-GLAQ-NH2) were used as negative and positive control peptides. ELISA readout of patient sera pool (black bars) given as absorbance determined at 405 nm. All given A405 nm values refer to the measured A405 nm value of each sample minus the blank.
Serum specimens were collected from melanoma patients (diagnosis confirmed by histopathology) at the Department of Dermatology, Medical University of Vienna, Austria. Staging of patients and according classification of sera followed the 2001 US Joint Committee on Cancer guidelines (Balch 2001). Usage of patient sera was approved by the ethical committee of the Medical University of Vienna, confidentially of the study subjects has been protected by respective sample coding. Sera from healthy donors served as negative controls. All sera were stored at −20° C. immediately after blood withdrawal. Melanoma patient derived sera pools and respective reference sera pools from healthy subjects were used for epitope screening and further peptide testing.
Streptavidin-coated 96-well microtiter plates (Mimotopes Pty Ltd., Australia) were blocked with 200 μl/well of 2% bovine albumine (Sigma-Aldrich) in PBST (PBS [0.1 M sodium phosphate, 0.15 M NaCl, pH 7.0]+0.1% v/v Tween20 (PBST)) over night at 4° C. The wells were then washed four times with PBST and incubated with 100 μl/well of 1:500 diluted biotinylated peptides for 2 hours at room temperature. 2 wells per plate were incubated with PBST in the absence of peptide (blank wells). Plates were washed 4 times with PBST. Subsequently, 100 μl of a melanoma-sera pool, diluted 1:40 in 1% bovine albumine/PBST and a reference serum pool (1:40) were added to each well and incubated for 2 h at room temperature. The plate was washed 4 times with PBST and incubated with 100 μl/well of the secondary antibody: goat anti-human IgG (h+l) antibody alkaline-phosphatase conjugated (BETHYL Laboratories, Inc., USA). Detection antibody was diluted 1:1000 in blocking solution and incubated for 1 hour. After 6 washing steps with PBST, 200 μl of a 1.0 mg/ml p-Nitrophenylphosphat substrate solution in 0.2 M Tris-buffer (Sigma-Aldrich) was added to each well. Absorbance was measured on a BDSL Immunoskan PLUS at 405 nm.
During initial screening of various peptides reactive peptides to the melanoma patient derived sera pool were selected and also validated by determining the reactivity to the reference sera pool obtained from healthy volunteers. […] These peptides were tested to determine the experimental antigenicity.

melanoma sera pool [2] = assay: Peptide testing ELISA, unbiotinylated peptides coated on Nunc Maxisorp F plates; details: for absorbance (A405 nm): melanoma sera pool dilution 1:50
Protocol: FIG. 5: Reactivity of serum antibodies with 2 MERV specfic partial overlapping peptides (GHB-G1 and GHB-H1) and 1 autoimmune-related peptide (GHB-17′) tested with 3 different melanoma-sera and reference sera pool dilutions respectively. An HIV peptide was used as negative control peptide. All given A405 nm values refer to the measured A405 nm value of each sample minus the blank.
NUNC Maxisorp F plates were coated with 1.0 μg peptide/well in 100 μl coating buffer (0.1 M sodium carbonate buffer, pH 9.5). 1 well per plate was coated with 100 μl of coating buffer without antigen (blank well). Plates were incubated over night at 4° C. Then plates were washed four times with PEST. Unspecific binding sites were blocked with 200 μl/well of 2% bovine albumine (Sigma-Aldrich) in PBST (PBS+0.1% v/v Tween20 (PBST)) for 1 hour at room temperature. The plates were washed 4 times with PBST. For the assay 100 μl/well of three different sera pool-dilutions (1:50, 1:200, 1:1600) diluted in 1% bovine albumine/PBST were added and incubated for 2 h at room temperature. Plates were washed 4 times with PBST and incubated with 100 μl/well of the secondary antibody: goat anti-human IgG (h+l) antibody alkaline-phosphatase conjugated, obtained from BETHYL Laboratories, Inc., USA (detection antibody was diluted 1:1000 in blocking solution) for 1 hour. After additional 6 times washing step with PBST, color was developed with 200 μl/well of a 1.0 mg/ml p-Nitrophenylphosphat substrate solution in 0.2 M Tris-buffer (Sigma-Aldrich). Absorbance was measured on a BDSL Immunoskan PLUS at 405 nm.
The peptides were tested with the same sera pools as given for the experiments above. As negative control peptide an HIV-derived peptide ([…]) with 1 μg/well was used.
Herve et al. characterise retroviral peptides in the context of autoimmune diseases. […] All three peptides were tested with three melanoma sera pool dilutions ([…], 1:200 and 1:1600). Peptides were coated on Nunc Maxisorp F plates and used to capture serum antibodies, which were then detected using goat anti-human IgG antibodies as shown in FIG. 5. […] GHB-G1 gave a signal of 1.50 even at a melanoma: sera pool dilution 1:200.

melanoma sera pool [3] = assay: Epitope mapping ELISA of 25 overlapping env-peptides (FIG. 4); details: A405 nm melanoma sera pool minus reference sera pool
Text: FIG. 4: Epitope mapping of 25 overlapping env-peptides tested with a patient sera pool and a reference sera pool as described above. The first bar represents amino acid 204-220, the second bar represents amino acid 205-221, etc. Del A405 nm refers to the measured A405 nm values of the melanoma sera pool minus the A405 nm values of the reference sera pool of each peptide. One experiment of two performed is shown. Mean values from duplicate trials are shown.
Streptavidin-coated 96-well microtiter plates (Mimotopes Pty Ltd., Australia) were blocked with 200 μl/well of 2% bovine albumine (Sigma-Aldrich) in PBST (PBS [0.1 M sodium phosphate, 0.15 M NaCl, pH 7.0]+0.1% v/v Tween20 (PBST)) over night at 4° C. The wells were then washed four times with PBST and incubated with 100 μl/well of 1:500 diluted biotinylated peptides for 2 hours at room temperature. 2 wells per plate were incubated with PBST in the absence of peptide (blank wells). Plates were washed 4 times with PBST. Subsequently, 100 μl of a melanoma-sera pool, diluted 1:40 in 1% bovine albumine/PBST and a reference serum pool (1:40) were added to each well and incubated for 2 h at room temperature. […] Absorbance was measured on a BDSL Immunoskan PLUS at 405 nm. […]

[4] = tested on: serum samples from melanoma patients; assay: Optimised ELISA on individual serum samples from melanoma patients; details: 31 melanoma serum samples; positive = value of 0.39 or above
Protocol: NUNC Polysorp F Peptide Immobiliser plates were coated with 0.125 μg peptide/well in 100 μl coating buffer ((0.1 M sodium carbonate buffer, pH 9.5). Plates were incubated over night at 4° C. Plates were then washed four times with PBST and unspecific binding sites were blocked with 200 μl/well of 2% bovine albumine (Sigma-Aldrich) in PBST (PBS+0.1% v/v Tween20 (PBST)) for 1 hour at room temperature. The plates were washed 4 times with PBST. For the assay 100 μl/well of serial-dilutions of the sera (initial dilution 1:200 in 1% bovine albumine/PBST were added and incubated for 2 h at room temperature. Plates were washed 4 times with PEST and incubated with the secondary antibody (100 μl/well). As secondary antibody an alkaline-phosphatase conjugated goat anti-human IgG (h+1) (BETHYL Laboratories, Inc., USA) diluted 1:1000 in blocking solution was used. Incubation period was 1 hour. After another 6 washing steps with PBST, the substrate was added (1.0 mg/ml p-Nitrophenylphosphat Sigma-Aldrich) in 0.2 M Tris-buffer 200 μl/well) Absorbance was measured on a BDSL Immunoskan PLUS at 405 nm.
For analysis of serum samples from melanoma patients, Nunc Polysorp Immobilizer Amino plates were used. […] 16 serum samples from healthy individuals served as controls to establish a negative treshold, as calculated by the average absorbance plus three standard deviations. […]

Sequence | reactivity ranking among the 46 tested peptides (melanoma sera pool [1]) | absorbance (A405 nm) (melanoma sera pool [2]; FIG. 5) | also measured
EMQRKAPPRRRRHRNRA (also: biotinylated (site not given here)) [Peptide A1, Env aa 5-21] | most reactive |  | 
FRPKGKPCPKEIPKESK (also: biotinylated (site not given here)) [Peptide H1, Env aa 220-236] | most reactive | above 0.50 | 
PAELQYRPPPESQYGYP (also: biotinylated (site not given here)) [Peptide E3, Gag aa 219-235] | most reactive |  | 
PWGWGEKGISTPRPKIV (also: biotinylated (site not given here)) [Peptide E2, Env aa 312-328] | most reactive |  | 
SYQRSLKFRPKGKPCPKEIP (Melanoma Associated Endogenous Retrovirus) [SEQ ID NO 69, unbiotinylated 20-mer covering peptides 10-13, env aa 213-232] |  |  | reactivity compared to unbiotinylated 17-mer peptide G1 (melanoma sera pool [2]; unbiotinylated peptides, independent experiment): did not exhibit a significant improvement
YQRSLKFRPKGKPCPKE (Melanoma Associated Endogenous Retrovirus) [Peptide G1, Env aa 214-230] | most reactive | ~1.50 | reactivity (Del A405 nm) (melanoma sera pool [3]): lower absorbance in the assay than the three neighbour peptides; melanoma sera that did not recognise the epitope [4]: 16; melanoma serum samples reacting positive [4]: 15 out of the 31; absorbance signal (A405 nm) (melanoma sera pool [2]; melanoma sera pool dilution 1:200, FIG. 5): 1.50
